Assay results published in ChEMBL document CHEMBL1122236, “3'-Amino-2',3'-dideoxyribonucleosides of some pyrimidines: synthesis and biological activities” (1983).
≈ marks a conversion by molar mass, not a printed value. Calls of active or inactive are those of the source. The rule behind the calls is not given here.

Columns and labels:
Candida albicans = test: Minimum inhibitory concentration against Candida albicans; type: functional
Priestia megaterium = test: Minimum inhibitory concentration against Bacillus megaterium; type: functional
Enterococcus faecalis = test: Minimum inhibitory concentration against Streptococcus faecalis; type: functional
L cells = test: in vitro cytotoxicity against mouse L cells.; type: functional; settings: L929, read-out: ED50 (the source's name)
Salmonella typhimurium = test: Minimum inhibitory concentration against Salmonella Typhimurium; type: functional, Salmonella enterica subsp. enterica serovar Typhimurium; settings: Salmonella enterica
Shigella flexneri = test: Minimum inhibitory concentration against Shigella flexneri; type: functional
[1] = system: Escherichia coli (organism); test: Minimum inhibitory concentration against Escherichia coli
Pasteurella multocida = test: Minimum inhibitory concentration against Pasteurella multocida; type: functional
Streptococcus pyogenes = test: Minimum inhibitory concentration against Streptococcus pyogenes; type: functional
Vibrio cholerae = test: Minimum inhibitory concentration against Vibrio cholerae; type: functional
Serratia marcescens = test: Minimum inhibitory concentration against Serratia marcescens; type: functional
Pseudomonas aeruginosa = test: Minimum inhibitory concentration against Pseudomonas aeruginosa; type: functional
Klebsiella aerogenes = test: Minimum inhibitory concentration against Enterobacter aerogenes; type: functional
Klebsiella pneumoniae = test: Minimum inhibitory concentration against Klebsiella pneumoniae; type: functional
P388 = test: Activity against P-388/0 mouse tumor at 675 mg/kg administered three times on days 1, 5, 9 after implantation; Inactive; type: functional, organism-based; parameters: dose 675 mg/kg
Salmonella = test: Minimum inhibitory concentration against Salmonella typhi; type: functional, salmonella typhosa
Citrobacter freundii = test: Minimum inhibitory concentration against Citrobacter freundii; type: functional
Proteus vulgaris = test: Minimum inhibitory concentration against Proteus vulgaris; type: functional
Staphylococcus aureus = test: In vitro minimum inhibitory concentration against Staphylococcus aureus; type: functional
Proteus mirabilis = test: Minimum inhibitory concentration against Proteus mirabilis; type: functional
Streptococcus agalactiae = test: Minimum inhibitory concentration against Streptococcus agalactiae; type: functional
D-38 = test: In vitro cytotoxicity against human D-38 cells.; type: functional; settings: read-out: ED50 (the source's name)
unidentified adenovirus = test: In vitro antiviral activity against adeno virus using plaque reduction assay.; type: functional; settings: read-out: ED50 (the source's name)
Escherichia coli = test: Minimum inhibitory concentration against Escherichia coli; type: functional

| Compound | EC50 (L cells) [µM] | MIC (Salmonella typhimurium) [µM] | MIC (Shigella flexneri) [µM] | MIC (Pasteurella multocida) [µM] | MIC (Vibrio cholerae) [µM] | MIC (Serratia marcescens) [µM] | MIC (Pseudomonas aeruginosa) [µM] | MIC (Klebsiella aerogenes) [µM] | MIC (Klebsiella pneumoniae) [µM] | MIC (Salmonella) [µM] | MIC (Citrobacter freundii) [µM] | MIC (Proteus vulgaris) [µM] | MIC (Staphylococcus aureus) [µM] | MIC (Proteus mirabilis) [µM] | EC50 (D-38) [µM] | EC50 (unidentified adenovirus) [µM] | MIC (Escherichia coli) [µM] | further results |
| --- | --- | --- | --- | --- | --- | --- | --- | --- | --- | --- | --- | --- | --- | --- | --- | --- | --- | --- |
| NC1CC(n2cc(F)c(=O)[nH]c2=O)OC1CO (stereo not given) | 100 | > 200 | > 200 | > 200 | > 200 | > 200 | > 200 | > 200 | > 200 | > 200 | > 200 | > 200 | 4 (≈ 0.981 µg/mL) | > 200 | > 100 | 10 |  | MIC (Candida albicans): > 200 µM; MIC (Priestia megaterium): 40 µM (≈ 9.81 µg/mL); MIC (Enterococcus faecalis): 20 µM (≈ 4.9 µg/mL); MIC [1]: > 200 µM; MIC (Streptococcus pyogenes): > 200 µM; Activity (P388): inactive; MIC (Streptococcus agalactiae): 20 µM (≈ 4.9 µg/mL) |
| Nc1ccn([C@H]2C[C@H](N)[C@@H](CO)O2)c(=O)n1 | 1 | > 200 | > 200 | > 200 | > 200 | > 200 | > 200 | > 200 | > 200 | > 200 | > 200 | > 200 | > 400 | > 200 | 3 | > 100 | > 200 |  |
| NC1CC(n2cc(Cl)c(=O)[nH]c2=O)OC1CO (stereo not given) | 100 | > 200 | > 200 | > 200 | > 200 | > 200 | > 200 | > 200 | > 200 | > 200 | > 200 | > 200 | > 200 | > 200 | > 100 | 100 | > 200 |  |
| N[C@H]1C[C@H](n2ccc(=O)[nH]c2=O)O[C@@H]1CO | > 100 | > 200 | > 200 | > 200 | > 200 | > 200 | > 200 | > 200 | > 200 | > 200 | > 200 | > 200 | > 400 | > 200 | > 100 | > 100 | > 200 |  |
| NC1CC(n2cc(Br)c(=O)[nH]c2=O)OC1CO (stereo not given) | > 100 | > 200 | > 200 | > 200 | > 200 | > 200 | > 200 | > 200 | > 200 | > 200 | > 200 | > 200 | > 400 | > 200 | > 100 | 100 | > 200 |  |
| NC1CC(n2cc(I)c(=O)[nH]c2=O)OC1CO (stereo not given) | > 100 | > 200 | > 200 | > 200 | > 200 | > 200 | > 200 | > 200 | > 200 | > 200 | > 200 | > 200 | > 400 | > 200 | > 100 | > 100 | > 200 |  |
| Cc1cn([C@H]2C[C@H](N)[C@@H](CO)O2)c(=O)[nH]c1=O [3-AMINO- 3-DEOXYTHYMIDINE] | 3 | > 200 | > 200 | > 200 | > 200 | > 200 | > 200 | > 200 | > 200 | > 200 | > 200 | > 200 | > 400 | > 200 | 100 | > 100 | > 200 |  |
